Results from patent US8513270B2, “Substituted heterocycles as Janus kinase inhibitors” (Incyte Corporation, priority 2006, dated 2013).
Counter-ions that a name gives are not always drawn.

What was measured:
[1] = target: T1, human JAK2 (a.a. 828-1132) (Homo sapiens, UniProt O60674); assay: In vitro JAK kinase assay (HTRF), JAK2; format: biochemical; conditions: JAK2, 30 μM ATP; read-out: EXAMPLE A HTS-JAK2 HTRF-2 IC50
T1 construct: JAK2 (a.a. 828-1132); His tag (N); made in house; host or cells: insect cells (baculovirus)
T1 sequence (O60674 828-1132): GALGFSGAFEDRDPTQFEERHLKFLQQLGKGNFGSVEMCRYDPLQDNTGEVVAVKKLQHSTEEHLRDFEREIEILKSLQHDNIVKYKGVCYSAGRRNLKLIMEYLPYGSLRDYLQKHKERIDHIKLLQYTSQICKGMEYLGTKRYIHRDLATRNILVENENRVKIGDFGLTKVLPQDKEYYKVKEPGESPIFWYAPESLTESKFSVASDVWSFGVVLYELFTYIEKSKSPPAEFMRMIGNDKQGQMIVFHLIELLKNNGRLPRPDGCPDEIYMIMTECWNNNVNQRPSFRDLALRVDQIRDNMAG
Method: (§1) Compounds herein were tested for inhibitory activity of JAK targets according to the following in vitro assay described in Park et al., Analytical Biochemistry 1999, 269, 94-104. The catalytic domains of human JAK1 (a.a. 837-1142), JAK2 (a.a. 828-1132) and JAK3 (a.a. 781-1124) with an N-terminal His tag were expressed using baculovirus in insect cells and purified. The catalytic activity of JAK1, JAK2 or JAK3 was assayed by measuring the phosphorylation of a biotinylated peptide. The phosphorylated peptide was detected by homogenous time resolved fluorescence (HTRF). IC50s of compounds were measured for each kinase in the reactions that contain the enzyme, ATP and 500 nM peptide in 50 mM Tris (pH 7.8) buffer with 100 mM NaCl, 5 mM DTT, and 0.1 mg/mL (0.01%) BSA. The ATP concentration in the reactions was 90 μM for JAK1, 30 μM for JAK2 and 3 μM for JAK3. Reactions were carried out at room temperature for 1 hr and then stopped with 20 μL 45 mM EDTA, 300 nM SA-APC, 6 nM Eu—Py20 in assay buffer (Perkin Elmer, Boston, Mass.). Binding to the Europium labeled antibody took place for 40 minutes and HTRF signal was measured on a Fusion plate reader (Perkin Elmer, Boston, Mass.).

[2] = target: T2, human JAK1 (a.a. 837-1142) (Homo sapiens, UniProt P23458); assay: In vitro JAK kinase assay (HTRF), JAK1; format: biochemical; conditions: JAK1, 90 μM ATP; read-out: EXAMPLE A JAK2-JAK1 HTRF-2 IC50
T2 construct: human JAK1 (a.a. 837-1142); His tag (N); made in house; host or cells: insect cells (baculovirus)
T2 sequence (P23458 849-1154): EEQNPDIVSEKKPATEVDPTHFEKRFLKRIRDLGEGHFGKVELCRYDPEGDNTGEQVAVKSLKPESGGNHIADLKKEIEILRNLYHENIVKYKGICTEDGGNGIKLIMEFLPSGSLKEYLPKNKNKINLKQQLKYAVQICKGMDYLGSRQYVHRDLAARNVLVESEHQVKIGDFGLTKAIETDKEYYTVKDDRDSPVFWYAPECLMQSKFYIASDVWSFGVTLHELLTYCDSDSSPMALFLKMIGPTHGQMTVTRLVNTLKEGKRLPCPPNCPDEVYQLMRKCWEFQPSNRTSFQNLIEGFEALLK
Method: as §1

[3] = test system: JAK2_INA61 (cancer cell line dependent on cytokines and JAK/STAT signal transduction); assay: Cellular assay: viability of cytokine-dependent cancer cell line (CellTiter-Glo); format: cell-based; conditions: 72 hours, read-out: EXAMPLE B JAK2_INA61 IC50
Method: One or more compounds herein were tested for inhibitory activity of JAK targets according to at least one of the following cellular assays.
Compounds were added to the cells in DMSO/media (final concentration 0.2% DMSO) and incubated for 72 hours at 37° C., 5% CO2. The effect of compound on cell viability was assessed using the CellTiter-Glo Luminescent Cell Viability Assay (Promega) followed by TopCount (Perkin Elmer, Boston, Mass.) quantitation. Potential off-target effects of compounds were measured in parallel using a non-JAK driven cell line with the same assay readout. […] All experiments were performed in duplicate.

[4] = target: TF1-BCRABL1 cells (Homo sapiens, UniProt P00519); assay: ABL1 cell based assay: viability of ABL1-dependent cell line (CellTiter-Glo); conditions: 72 hours, cell viability; read-out: EXAMPLE F JAK2-TF1-BCRABL1 IC50
Sequence of TF1-BCRABL1 cells (P00519 whole entry, change not shown): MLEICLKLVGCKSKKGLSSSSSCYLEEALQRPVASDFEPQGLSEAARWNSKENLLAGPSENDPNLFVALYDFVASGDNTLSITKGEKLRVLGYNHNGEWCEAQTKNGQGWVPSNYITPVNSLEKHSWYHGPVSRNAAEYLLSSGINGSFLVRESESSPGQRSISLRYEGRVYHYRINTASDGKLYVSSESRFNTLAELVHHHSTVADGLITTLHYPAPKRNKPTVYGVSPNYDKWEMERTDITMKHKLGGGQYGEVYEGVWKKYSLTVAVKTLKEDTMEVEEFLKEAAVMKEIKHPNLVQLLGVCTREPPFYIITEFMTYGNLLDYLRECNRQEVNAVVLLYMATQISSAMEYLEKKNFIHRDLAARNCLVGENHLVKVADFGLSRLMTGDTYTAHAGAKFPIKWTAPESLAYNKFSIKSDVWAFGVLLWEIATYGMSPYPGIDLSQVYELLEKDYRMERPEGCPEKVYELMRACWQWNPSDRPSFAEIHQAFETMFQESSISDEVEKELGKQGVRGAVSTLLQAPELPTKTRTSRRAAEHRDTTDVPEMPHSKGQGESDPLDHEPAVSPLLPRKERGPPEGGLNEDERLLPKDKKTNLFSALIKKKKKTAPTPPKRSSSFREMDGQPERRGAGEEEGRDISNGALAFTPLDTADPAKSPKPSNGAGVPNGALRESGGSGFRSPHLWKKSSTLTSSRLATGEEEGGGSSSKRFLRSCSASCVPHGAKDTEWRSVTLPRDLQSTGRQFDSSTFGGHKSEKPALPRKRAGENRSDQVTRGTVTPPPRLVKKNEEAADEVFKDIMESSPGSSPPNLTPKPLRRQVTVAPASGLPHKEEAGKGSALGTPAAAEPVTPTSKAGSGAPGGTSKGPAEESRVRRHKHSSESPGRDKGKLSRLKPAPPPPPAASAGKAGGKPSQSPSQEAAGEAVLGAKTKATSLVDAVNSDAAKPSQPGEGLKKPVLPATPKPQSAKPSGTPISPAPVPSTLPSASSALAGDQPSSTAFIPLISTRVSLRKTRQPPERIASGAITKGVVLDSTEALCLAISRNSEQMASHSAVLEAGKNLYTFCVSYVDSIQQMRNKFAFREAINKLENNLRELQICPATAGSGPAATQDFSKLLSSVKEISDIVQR
Method: One or more compounds herein were tested for inhibitory activity of ABL1 targets according to at least one of the following cellular assays.
Cancer cell lines dependent on ABL1 kinase activity for proliferation and/or survival were plated at 3000 cells per well (96 well plate format) in RPMI 1640, and 10% FBS. Compounds were added to the cells in DMSO/media (final concentration 0.2% DMSO) and incubated for 72 hours at 37° C., 5% CO2. The effect of compound on cell viability was assessed using the CellTiter-Glo Luminescent Cell Viability Assay (Promega) followed by TopCount (Perkin Elmer, Boston, Mass.) quantitation. ABL1-dependent cell lines can include those naturally dependent on ABL1 activity or those engineered to be dependent on ABL1 activity (e.g. BaF/3 cells). The latter can be generated using wild-type ABL1 or mutant ABL1 (such as T315I ABL1) so that the activity of compounds can be assessed against different variants of the ABL1 kinase. Potential off-target effects of compounds were measured in parallel using a non-ABL1 driven cell line with the same assay readout. […] All experiments were performed in duplicate or greater.

[5] = target: T3, human JAK3 (a.a. 781-1124) (Homo sapiens, UniProt P52333); assay: In vitro JAK kinase assay (HTRF), JAK3; format: biochemical; conditions: JAK3, 3 μM ATP; read-out: EXAMPLE A JAK2-JAK3 HTRF-2 IC50
T3 construct: JAK3 (a.a. 781-1124); His tag (N); made in house; host or cells: insect cells (baculovirus)
T3 sequence (P52333 781-1124): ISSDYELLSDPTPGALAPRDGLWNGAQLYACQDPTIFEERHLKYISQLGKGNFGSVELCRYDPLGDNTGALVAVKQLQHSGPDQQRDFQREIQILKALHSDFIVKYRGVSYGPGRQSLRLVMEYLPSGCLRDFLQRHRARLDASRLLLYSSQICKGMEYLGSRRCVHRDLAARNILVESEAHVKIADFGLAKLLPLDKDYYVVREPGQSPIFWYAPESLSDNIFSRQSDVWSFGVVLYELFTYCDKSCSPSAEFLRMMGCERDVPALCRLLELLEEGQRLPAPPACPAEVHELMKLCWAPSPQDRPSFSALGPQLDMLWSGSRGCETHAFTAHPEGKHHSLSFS
Method: as §1

`Cc1ccc(NC(=O)c2cc(F)cc(C(F)(F)F)c2)cc1-c1ccc2[nH]c3ncncc3c2c1` [Example 43, 3-fluoro-N-[4-methyl-3-(9H-pyrimido[4,5-b]indol-6-yl)-phenyl]-5-(trifluoromethyl)-benzamide] showed an IC50 [1] of no more than 500 nM, an IC50 [2] greater than 1000 nM and an IC50 [3] of 500 to 1000 nM. It also gave a GI50 [4] of no more than 500 nM and an IC50 [5] of no more than 500 nM.

In the case of `Cc1ccc(NC(=O)c2cc(F)cc(C(F)(F)F)c2)cc1-c1ccc2c(c1)[nH]c1ncncc12` [Example 19, 3-Fluoro-N-[4-methyl-3-(9H-pyrimido[4,5-b]indol-7-yl)phenyl]-5-(trifluoro-methyl)benzamide], the IC50 [1] is reported as no more than 500 nM, the IC50 [2] is reported as no more than 500 nM and the IC50 [3] is reported as no more than 500 nM. The GI50 [4] was no more than 500 nM and the IC50 [5] was no more than 500 nM.

Compound `Cc1ncc(NC(=O)c2cccc(C(F)(F)F)c2)cc1-c1ccc2c(c1)[nH]c1ncncc12` [Example 70, N-[6-methyl-5-(9H-pyrimido[4,5-b]indol-7-yl)pyridin-3-yl]-3-(trifluoromethyl)benzamide] has an IC50 [1] of no more than 500 nM, an IC50 [2] of no more than 500 nM and an IC50 [3] of 500 to 1000 nM. For the same compound, the GI50 [4] was no more than 500 nM and the IC50 [5] was no more than 500 nM.

`Cc1ccc(C(=O)Nc2cccc(C(F)(F)F)c2)cc1-c1ccc2c(c1)[nH]c1ncccc12` [Example 68, 4-Methyl-3-(9H-pyrido[2,3-b]indol-7-yl)-N-[3-(trifluoromethyl)phenyl]benzamide, trifluoroacetate salt] was tested, and the IC50 [1] was no more than 500 nM, the IC50 [2] was no more than 500 nM and the IC50 [3] was greater than 1000 nM. For the same compound, the GI50 [4] was no more than 500 nM and the IC50 [5] was no more than 500 nM.

With `Cc1ccc(C(=O)Nc2nnc(C(F)(F)F)s2)cc1-c1ccc2c(c1)[nH]c1ncncc12` [Example 61, 4-methyl-3-(9H-pyrimido-[4,5-b]indol-7-yl)-N-[5-(trifluoromethyl)-1,3,4-thiadiazol-2-yl]benzamide] the IC50 [1] was greater than 1000 nM, the IC50 [2] was greater than 1000 nM and the IC50 [3] was greater than 1000 nM. For the same compound, the GI50 [4] was 500 to 1000 nM and the IC50 [5] was no more than 500 nM.

Work on `Cc1ccc(NC(=O)c2ccc(F)c(C(F)(F)F)c2)cc1-c1ccc2[nH]c3ncncc3c2c1` [Example 42, 4-fluoro-N-[4-methyl-3-(9H-pyrimido[4,5-b]indol-6-yl)-phenyl]-3-(trifluoromethyl)-benzamide] yielded an IC50 [1] of no more than 500 nM, an IC50 [2] of no more than 500 nM and an IC50 [3] greater than 1000 nM. The GI50 [4] was no more than 500 nM and the IC50 [5] was 500 to 1000 nM.

In the case of `O=C(Nc1ccc(Cl)c(-c2ccc3c(c2)[nH]c2ncncc23)c1)c1cccc(C(F)(F)F)c1` [Example 17, N-[4-chloro-3-(9H-pyrimido-[4,5-b]indol-7-yl)phenyl]-3-(trifluoromethyl)benzamide], the IC50 [1] is reported as no more than 500 nM, the IC50 [2] is reported as no more than 500 nM and the GI50 [4] is reported as no more than 500 nM. For the same compound, the IC50 [5] was no more than 500 nM.

`Cc1ncc(NC(=O)c2cc(-n3ccnc3)cc(C(F)(F)F)c2)cc1-c1ccc2c(c1)[nH]c1ncncc12` [Example 72, 3-(1H-imidazol-1-yl)-N-[6-methyl-5-(9H-pyrimido[4,5-b]indol-7-yl)pyridin-3-yl]-5-(trifluoromethyl)benzamide tris(trifluoroacetate)] showed an IC50 [1] of no more than 500 nM, an IC50 [2] of no more than 500 nM and a GI50 [4] of no more than 500 nM. The IC50 [5] was no more than 500 nM.

Work on `Cc1ccc(NC(=O)c2cccc(C(F)(F)F)c2)cc1-c1ccc2c(c1)[nH]c1nc(N)ncc12` [Example 67, N-[3-(2-Amino-9H-pyrimido[4,5-b]indol-7-yl)-4-methylphenyl]-3-(trifluoro-methyl)benzamide trifluoroacetate] yielded an IC50 [1] of no more than 500 nM, an IC50 [2] of no more than 500 nM and a GI50 [4] of no more than 500 nM. The IC50 [5] was no more than 500 nM.

Compound `Cc1ncc(NC(=O)c2cc(-n3cncn3)cc(C(F)(F)F)c2)cc1-c1ccc2c(c1)[nH]c1ncncc12` [Example 73, N-[6-methyl-5-(9H-pyrimido[4,5-b]indol-7-yl)pyridin-3-yl]-3-(1H-1,2,4-triazol-1-yl)-5-(trifluoromethyl)benzamide bis(trifluoroacetate)] has an IC50 [1] of no more than 500 nM, an IC50 [2] of no more than 500 nM and a GI50 [4] of no more than 500 nM. The IC50 [5] was no more than 500 nM.

`Cc1ccc(NC(=O)c2cc(C(F)(F)F)cc(C(F)(F)F)c2)cc1-c1ccc2c(c1)[nH]c1ncncc12` [Example 9, N-[4-methyl-3-(9H-pyrimido-[4,5-b]indol-7-yl)phenyl]-3,5-bis(trifluoromethyl)benzamide] gave an IC50 [1] of no more than 500 nM, an IC50 [2] of no more than 500 nM and a GI50 [4] of no more than 500 nM. It also gave an IC50 [5] of no more than 500 nM.

For `Cc1ccc(NC(=O)c2cc(-n3cnc(C=O)c3)cc(C(F)(F)F)c2)cc1-c1ccc2c(c1)[nH]c1ncncc12` [Example 20, 3-(4-Formyl-1H-imidazol-1-yl)-N-[4-methyl-3-(9H-pyrimido[4,5-b]indol-7-yl)phenyl]-5-(trifluoromethyl)benzamide trifluoroacetate], the IC50 [1] was no more than 500 nM, the IC50 [2] was no more than 500 nM and the GI50 [4] was no more than 500 nM. The IC50 [5] was no more than 500 nM.

`Cc1ccc(NC(=O)c2cc(N3CCN(CCO)CC3)cc(C(F)(F)F)c2)cc1-c1ccc2c(c1)[nH]c1ncncc12` [Example 32, 3-[4-(2-hydroxyethyl)piperazin-1-yl]-N-[4-methyl-3-(9H-pyrimido[4,5-b]indol-7-yl)-phenyl]-5-(trifluoromethyl)-benzamide] gave an IC50 [1] of no more than 500 nM, an IC50 [2] of no more than 500 nM and a GI50 [4] of no more than 500 nM. The IC50 [5] was no more than 500 nM.

For `Cc1ncc(NC(=O)c2cc(NCCCN(C)C)cc(C(F)(F)F)c2)cc1-c1ccc2c(c1)[nH]c1ncncc12` [Example 77, 3-[3-(dimethylamino)propyl]amino-N-[6-methyl-5-(9H-pyrimido[4,5-b]indol-7-yl)pyridin-3-yl]-5-(trifluoromethyl)benzamide tris(trifluoroacetate)], the IC50 [1] was no more than 500 nM, the IC50 [2] was no more than 500 nM and the GI50 [4] was no more than 500 nM. It also gave an IC50 [5] of no more than 500 nM.

For `Cc1ccc(NC(=O)c2cc(NCCN3CCOCC3)cc(C(F)(F)F)c2)cc1-c1ccc2c(c1)[nH]c1ncncc12` [Example 31, N-[4-methyl-3-(9H-pyrimido-[4,5-b]indol-7-yl)phenyl]-3-[(2-morpholin-4-ylethyl)amino]-5-(trifluoromethyl)benzamide], the IC50 [1] was no more than 500 nM, the IC50 [2] was no more than 500 nM and the GI50 [4] was no more than 500 nM. For the same compound, the IC50 [5] was no more than 500 nM.

For `Cc1ncc(NC(=O)c2cc(F)cc(C(F)(F)F)c2)cc1-c1ccc2c(c1)[nH]c1ncncc12` [Example 71, 3-Fluoro-N-[6-methyl-5-(9H-pyrimido[4,5-b]indol-7-yl)pyridin-3-yl]-5-(trifluoromethyl)benzamide], the IC50 [1] was no more than 500 nM, the IC50 [2] was no more than 500 nM and the GI50 [4] was no more than 500 nM. The IC50 [5] was no more than 500 nM.

In the case of `Cc1ccc(NC(=O)c2cc(C(F)(F)F)ccc2F)cc1-c1ccc2c(c1)[nH]c1ncncc12` [Example 5, 2-fluoro-N-[4-methyl-3-(9H-pyrimido[4,5-b]indol-7-yl)-phenyl]-5-(trifluoromethyl)-benzamide], the IC50 [1] is reported as no more than 500 nM, the IC50 [2] is reported as no more than 500 nM and the GI50 [4] is reported as no more than 500 nM. It also gave an IC50 [5] of no more than 500 nM.

Compound `Cc1ccc(NC(=O)c2cc(-n3ccnc3)cc(C(F)(F)F)c2)cc1-c1ccc2c(c1)[nH]c1ncncc12` [Example 23, 3-(1H-imidazol-1-yl)-N-[4-methyl-3-(9H-pyrimido[4,5-b]-indol-7-yl)phenyl]-5-(trifluoromethyl)benzamide] has an IC50 [1] of no more than 500 nM, an IC50 [2] of no more than 500 nM and a GI50 [4] of no more than 500 nM. The IC50 [5] was no more than 500 nM.
